Results taken from patent publication US9096532B2, “Pyrazole inhibitors of COX-2 and sEH” (The Regents of the University of California, priority 2010, dated 2015).
“Also recorded” adds a separate entry of the source.

Columns and labels:
[1] = tested on: HepG2 cells; assay: HepG2 cell viability analysis (MTT); type: cell-based; details: Homo sapiens, HepG2; MTT after 24 hours of incubation
Procedure: Cells were plated at 10,000 cell per well in 96-well plates and allowed to attach overnight under the growth conditions described above. […] These compounds were dissolved in 100% DMSO and diluted with EMEM to the desired concentration of 0.1 μM, 1.0 μM, 10 μM, 25 μM, and 50 μM, with a final DMSO concentration of 0.1% for all cell-based in vitro studies. All studies included DMSO as a solvent control. Cell viability was determined using the MTT Cell Viability Assay Kit from ATCC according to manufacturer's instructions. The 96-well plates were measure at 570 nm using SpectroMax 190 plate reader (Molecular Devices, Sunnyvale, Calif.). […] Each concentration was performed in triplicate per 96-well plate and EC50 data are presented as the mean±standard deviation from at least 3 separate experiments performed on separate days.

[2] = target: T1, human sEH (Homo sapiens, UniProt P34913); assay: sEH IC50 assay, fluorescent-based with CMNPC substrate; type: biochemical; details: compared to compound 11g
T1 sequence (P34913 1-555): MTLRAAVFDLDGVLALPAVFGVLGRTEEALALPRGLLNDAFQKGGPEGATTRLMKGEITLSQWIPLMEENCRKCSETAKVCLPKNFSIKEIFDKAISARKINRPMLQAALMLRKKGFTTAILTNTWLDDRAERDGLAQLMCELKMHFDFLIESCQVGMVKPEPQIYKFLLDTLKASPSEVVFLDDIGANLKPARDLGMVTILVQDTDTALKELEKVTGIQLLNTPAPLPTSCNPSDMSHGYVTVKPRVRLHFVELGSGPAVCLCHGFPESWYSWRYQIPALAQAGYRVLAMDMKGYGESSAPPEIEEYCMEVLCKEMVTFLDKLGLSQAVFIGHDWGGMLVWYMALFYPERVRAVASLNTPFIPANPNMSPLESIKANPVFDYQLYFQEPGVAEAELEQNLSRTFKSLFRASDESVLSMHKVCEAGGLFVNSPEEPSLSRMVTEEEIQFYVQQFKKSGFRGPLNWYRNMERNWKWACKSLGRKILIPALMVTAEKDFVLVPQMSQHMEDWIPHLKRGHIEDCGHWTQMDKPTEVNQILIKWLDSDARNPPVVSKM
Procedure: sEH inhibition IC50 values for the compounds presented herein can be assayed by a recombinant affinity assay using purified sEHs, from human, mouse or rat, in a fluorescent-based assay.
For the recombinant affinity assay, purified sEHs (human, mouse and rat) were used in a fluorescent-based assay to determine IC50 values. […] These IC50 values were calculated from at least three separate runs, each in triplicate, to obtain the statistics herein, e.g., standard deviation.

[3] = target: T2, human recombinant COX-2 (Homo sapiens, UniProt P35354); assay: Cyclooxygenase inhibition assay (COX Fluorescent Inhibitor Screening Assay Kit), COX-2; type: biochemical
T2 construct: purchased Cayman Chemical 700100
T2 sequence (P35354 18-604): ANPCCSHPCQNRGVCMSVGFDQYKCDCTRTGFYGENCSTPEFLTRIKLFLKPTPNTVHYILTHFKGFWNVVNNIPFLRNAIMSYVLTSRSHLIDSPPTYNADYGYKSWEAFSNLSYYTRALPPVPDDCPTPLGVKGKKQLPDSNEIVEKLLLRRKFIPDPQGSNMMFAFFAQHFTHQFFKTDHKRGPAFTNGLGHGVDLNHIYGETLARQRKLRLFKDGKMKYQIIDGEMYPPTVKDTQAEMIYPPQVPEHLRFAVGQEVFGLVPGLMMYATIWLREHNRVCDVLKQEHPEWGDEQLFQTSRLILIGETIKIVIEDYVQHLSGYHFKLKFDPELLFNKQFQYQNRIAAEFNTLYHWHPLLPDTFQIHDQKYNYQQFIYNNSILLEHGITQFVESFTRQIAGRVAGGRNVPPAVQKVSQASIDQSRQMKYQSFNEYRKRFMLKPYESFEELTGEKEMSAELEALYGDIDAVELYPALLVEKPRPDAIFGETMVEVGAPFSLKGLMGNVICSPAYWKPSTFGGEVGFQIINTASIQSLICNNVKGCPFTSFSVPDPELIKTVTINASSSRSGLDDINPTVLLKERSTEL
Procedure: (§1) Stock solutions of test compounds are dissolved in a minimum volume of DMSO. 10 μl of various concentrations of the test compound solutions, e.g., [I]final between 0.01 and 100 μM, are added to a series of supplied reaction buffer solutions (150 μl, 100 mM Tris-HCl, pH 8.0) with either COX-1 or COX-2 (10 μl) enzyme in the presence of Heme (10 μl) and a fluorometric substrate (10 μl). The reactions are initiated by quickly adding 10 μl of arachidonic acid solution and then incubating the system for two minutes at room temperature. […] The intensity of this fluorescence is proportional to the amount of resorufin, which is proportional to the amount of PGG2 present in the well during the incubation. Percent inhibition is calculated by comparison from the 100% initial activity sample value (no inhibitor).
as §1, with “compounds were” for “compounds are”, “μM, were” for “μM, are”, “reactions were” for “reactions are”, “then incubated” for “then incubating the system”, “inhibition was” for “inhibition is”

[4] = target: T3, ovine COX-1 (Ovis aries, UniProt P05979); assay: Cyclooxygenase inhibition assay (COX Fluorescent Inhibitor Screening Assay Kit), COX-1; type: biochemical; details: for inhibition at 100 µM: read-out: COX-1 (% inhibition)
T3 construct: purchased Cayman Chemical 700100
T3 sequence (P05979 25-600): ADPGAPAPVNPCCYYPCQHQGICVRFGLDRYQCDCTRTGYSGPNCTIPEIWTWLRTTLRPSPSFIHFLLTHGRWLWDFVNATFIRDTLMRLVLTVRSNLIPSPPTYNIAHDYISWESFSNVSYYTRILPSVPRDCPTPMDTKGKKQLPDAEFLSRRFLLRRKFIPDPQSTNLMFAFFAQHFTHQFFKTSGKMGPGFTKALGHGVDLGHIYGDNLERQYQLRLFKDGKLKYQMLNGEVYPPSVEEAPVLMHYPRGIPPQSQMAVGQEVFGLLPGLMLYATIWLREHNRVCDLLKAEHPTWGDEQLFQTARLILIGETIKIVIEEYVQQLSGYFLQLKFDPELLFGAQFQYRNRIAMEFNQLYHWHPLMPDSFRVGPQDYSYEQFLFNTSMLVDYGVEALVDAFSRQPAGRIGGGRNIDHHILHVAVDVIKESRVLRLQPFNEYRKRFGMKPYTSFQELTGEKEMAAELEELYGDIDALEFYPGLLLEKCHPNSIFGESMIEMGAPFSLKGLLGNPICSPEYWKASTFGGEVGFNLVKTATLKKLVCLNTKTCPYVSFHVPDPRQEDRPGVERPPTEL
Procedure: as §1
as §1, with “compounds were” for “compounds are”, “μM, were” for “μM, are”, “reactions were” for “reactions are”, “then incubated” for “then incubating the system”, “inhibition was” for “inhibition is”

[5] = Pharmacokinetics in mice by oral cassette dosing; type: in vivo; details: oral cassette dosing at 5 mg/kg, blood
Procedure: All the animal experiments were performed according to protocols approved by the Animal Use and Care Committee of University of California, Davis. […] Each cassette was orally administered to 4 mice at a dose of 5 mg/kg in 120-150 μl of vehicle depending on animal weight. […] The instrument was equipped with a linear ion trap and a Turbo V ion source and was operated in negative ion MRM mode. […] This was maintained for 3 min, then the gradient was returned to 30% solvent B in 2 min. The flow rate was 0.4 mL/min. The injection volume was 10 μL and the samples were kept at 4° C. in the auto sampler.

[6] = target: T4, 5-LOX (Homo sapiens, UniProt P09917); assay: Potency against 5-LOX; type: biochemical; details: compared with celecoxib
T4 sequence (P09917 1-674): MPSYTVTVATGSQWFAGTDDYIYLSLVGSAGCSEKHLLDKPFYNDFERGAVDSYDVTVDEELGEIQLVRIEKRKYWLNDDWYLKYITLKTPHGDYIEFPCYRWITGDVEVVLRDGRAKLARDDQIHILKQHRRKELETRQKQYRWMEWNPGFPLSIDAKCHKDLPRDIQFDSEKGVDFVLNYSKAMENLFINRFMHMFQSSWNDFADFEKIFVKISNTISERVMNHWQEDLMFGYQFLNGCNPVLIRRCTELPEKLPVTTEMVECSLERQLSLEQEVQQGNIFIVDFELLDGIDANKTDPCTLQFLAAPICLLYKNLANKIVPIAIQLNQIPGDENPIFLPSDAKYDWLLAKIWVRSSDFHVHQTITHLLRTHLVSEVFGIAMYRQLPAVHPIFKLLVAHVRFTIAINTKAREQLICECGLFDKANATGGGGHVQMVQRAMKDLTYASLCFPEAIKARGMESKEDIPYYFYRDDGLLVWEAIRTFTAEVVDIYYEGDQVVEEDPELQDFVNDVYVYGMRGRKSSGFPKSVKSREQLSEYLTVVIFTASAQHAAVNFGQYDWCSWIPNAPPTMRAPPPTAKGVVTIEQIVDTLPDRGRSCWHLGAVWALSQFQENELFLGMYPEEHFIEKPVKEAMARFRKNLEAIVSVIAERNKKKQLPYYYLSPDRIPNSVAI

[7] = Pharmacokinetics in rats by oral administration
[8] = tested on: LPS induced allodynia; assay: Von Frey mechanical nociceptive assay, LPS induced model of inflammatory pain; type: in vivo; details: male SD rats, 10 mg/kg s.c. 60 minutes before intraplantar LPS, tested until 6 hours post LPS
Procedure: In vivo anti-allodynic effects of the COX-2/sEH dual inhibitors provided herein was assayed. An LPS induced model of inflammatory pain was used to compare the pain reducing activity of the COX-2/sEH dual inhibitors to combination and individual therapies.
Rats weighing approximately 250-300 grams are brought to the testing apparatus and allowed to acclimate for 30 minutes. After 30 minutes the rats are tested with a von Frey aesthesiometer for their non-treated baseline withdrawal latency to mechanical stimulation. The von Frey apparatus is a raised metal mesh platform that has clear acrylic chambers to enclose rats but allow them to move freely. A rigid tip von Frey probe is used to probe the plantar surface of the rat hind paw though the mesh floor to elicit a withdrawal response. The measures recorded are grams of force applied to the hind paw required to elicit a withdrawal. The pretreatment baseline score is considered the pain-free baseline (BL) and is assigned 100% for further response calculations. […] The measures are then calculated as a percent of the pretreatment baseline score.

[9] = human recombinant COX-2, triplicate average
[10] = rats, oral administration at 1 mg/kg (n = 4), blood

SMILES | EC50 [1] [µM] | Improvement of sEH inhibition [2] [fold] | IC50 [3, 9] [µM] | IC50 ([3]; text of b131, unit inferred) [µM] | IC50 [4] [µM] | inhibition at 100 µM [4] [%] | AUC [5] [µM·h] | Cmax [5] [nM] | Tmax [5] [h] | t1/2 [5] [h] | Potency against 5-LOX, in words [6] | half-life ([7]; male, Sprague-Dawley, rat, whole blood, po, 1 mg/kg) [h] | AUC [7, 10] [µM·h] | Cmax [7, 10] [nM] | Tmax [7, 10] [h] | COX-1 (% inhibition) ([4]; ovine COX-1, % inhibition at 100 μM concentration) [%] | Anti-allodynic effect, von Frey paw withdrawal, in words [8]
Cc1ccc(-c2cc(C(F)(F)F)nn2-c2ccc(S(N)(=O)=O)cc2)cc1 [Celecoxib, celecoxib, reference compound] | 20 ± 4 | – | – | – | – | – | – | – | – | – | – | – | – | – | – | – | –
NS(=O)(=O)c1ccc(-n2nc(CCCNC(=O)Nc3cccc(C(F)(F)F)c3)cc2-c2ccccc2)cc1 [Compound 21b, 4-(5-Phenyl-3-{3-[3-(3-trifluoromethyl-phenyl)-ureido]-propyl}-pyrazol-1-yl)-benzenesulfonamide] | – | 20 | 0.71 | 0.71 | > 100 | 27.2 | 0.035 | 19 | 0.5 | 1.0 | comparable with celecoxib | – | – | – | – | – | –
NS(=O)(=O)c1ccc(-n2nc(CCCNC(=O)Nc3ccc(OC(F)(F)F)cc3)cc2-c2ccccc2)cc1 [Compound 21j, 4-(5-Phenyl-3-{3-[3-(4-trifluoromethoxy-phenyl)-ureido]-propyl}-pyrazol-1-yl)-benzenesulfonamide] | 10 ± 2 | – | 0.92 | – | > 100 | 13.8 | 1.335 | 290 | 0.8 | 2.4 | comparable with celecoxib | 11.6 ± 5.6 | 1.23 ± 0.521 | 180 ± 71 | 1.0 ± 0.7 | – | –
O=C(NC1CCC(Oc2ccc(C(=O)O)cc2)CC1)NC12CC3CC(CC(C3)C1)C2 (centres unmarked) [t-AUCB, reference compound] | – | – | – | – | – | – | – | – | – | – | – | – | – | – | – | 25.2 | slight antihyperalgesic effect; also recorded: limited effect
